A short description of data set [1]: in vitro. To be noted: rat.
A short description of data set [2]: in vitro. To be noted: human.
Data set [3] is described as follows: Solubility of the compound in water. Type of data set: physicochemical.
Data set [4] can be described thus: Solubility of the compound in buffer at pH 2 to 7 at 37 degC. The class given is physicochemical.
The nature of data set [5]: Apparent permeability of the compound in human Caco-2 cells at 10 uM. Type of data set: ADME, cell-based. In general terms: Caco-2 cells form a polarised layer with tight junctions and transporters.
The nature of data set [6]: Tmax in Beagle dog at 1 mg/kg, po. The class given is ADME, organism-based, Canis lupus familiaris. To be noted: in vivo.
A short description of data set [7]: AUC (0 to 24 hrs) in Beagle dog at 1 mg/kg, po. Particulars: in vivo. Also noted: dose 1 mg/kg, route po. The class given is ADME, organism-based, Canis lupus familiaris.
Data set [8] can be described thus: Terminal half life in Beagle dog at 1 mg/kg, iv. The class given is ADME, organism-based, Canis lupus familiaris. Particulars: in vivo, read-out: beta t1/2 (converted).
A short description of data set [9]: Clearance in Beagle dog at 1 mg/kg, iv. The class given is ADME, organism-based, Canis lupus familiaris. To be noted: in vivo.
Data set [10] in a line: Volume of distribution in Beagle dog at 1 mg/kg, iv. Type of data set: ADME, organism-based, Canis lupus familiaris. To be noted: in vivo.
Data set [11] in a line: Oral bioavailability in Beagle dog at 1 mg/kg. Type of data set: ADME, organism-based, Canis lupus familiaris. To be noted: in vivo.
A short description of data set [12]: Acid dissociation constant, pKa of the compound. The class given is physicochemical.
The conditions of data set [13]: rat, in vivo, po, 3 mg/kg, 24 h.
The conditions of data set [14]: rat, in vivo, po, 3 mg/kg, 24 h. This is another data set of the same source.
Data set [15] can be described thus: in vivo. To be noted: Wistar, rat, po, 3 mg/kg.
Data set [16] can be described thus: in vivo. Particulars: Wistar, rat, po, 3 mg/kg. This is another data set of the same source.
A short description of data set [17]: in vivo. Particulars: Wistar, rat, po, 3 mg/kg. The source holds these as a separate data set.
A short description of data set [18]: in vivo. To be noted: Wistar, rat, po, 3 mg/kg. The source holds these as a separate data set.
The nature of data set [19]: in vivo. To be noted: Wistar, rat, iv, 1 mg/kg.
For data set [20] the following is noted: rat, in vivo, po, 3 mg/kg, 24 h. This is another data set of the same source.
The nature of data set [21]: in vivo. Particulars: Wistar, rat, brain and plasma, po, 10 mg/kg.

Regarding `CC(C)n1nc(-c2noc(C3CCN(CC4CCOCC4)CC3)n2)c2ccccc21`, the values for the metabolised at 0.5 h in data set [1] (microsomes) and in data set [2] (microsomes) were 64.1% and 40.4%, respectively.

In the case of `COCCCN1CCC(c2nnc(-c3nn(C(C)C)c4ccccc34)o2)CC1.O=C(O)C(=O)O`, the solubility (in general, the dissolved amount per volume that the medium holds) in data set [3] was 17.1 mg/mL; in [4], 20 mg/mL. In [5], the Papp (as a rule, the rate of passage across a membrane or cell layer, normalised by area and donor concentration) at 10 µM was determined as 38 ×10⁻⁶ cm/s. Moreover, the Tmax (as a rule, the time at which the peak concentration occurs) in [6] was 0.5 h. Besides, the AUC(0-t) – broadly, the area under the concentration-time curve up to a stated or last time point – in data set [7] is 711 ng·h/mL. For the same compound, the half-life in data set [8] was 6 h. Besides, the clearance (commonly a measure of how efficiently the substance is removed, as volume per time) in data set [9] stood at 18 mL/min/kg. In addition, in [10], the Vd (usually a proportionality between amount in the body and measured concentration, not a real space) turned out to be 5.1 L/kg. Besides, the bioavailability (as a rule, the share of a dose that reaches the circulation, judged against a reference dose that is usually intravenous) in data set [11] was 72%. Besides, the pKa (usually the negative logarithm of the acid dissociation constant) in data set [12] amounted to 8.4. Also, in data set [13], the Vdss was 8 L/kg. Moreover, the results for the metabolised at 0.5 h in data set [1] (liver microsomes) and in [2] (liver microsomes) were 25.1% and 26.2%, respectively.

Turning to `CC(C)n1nc(-c2nnc(C3CCN(CC4CC4)CC3)o2)c2ccccc21`, the AUC (in general, the area under the concentration-time curve, a measure of exposure) in data set [14] worked out at 394 ng·h/mL. The same compound displayed a Vdss in data set [13] of 8 L/kg. Moreover, in data set [15], the half-life at 24 h was 1.7 h. Moreover, the metabolised at 0.5 h in data set [1] (liver microsomes) came to 83.8%; in data set [2] (liver microsomes) it was 43.6%.

In [13], `CC(C)n1nc(-c2nnc(C3CCN(CC4CCC4)CC3)o2)c2ccccc21` gave a Vdss of 4.9 L/kg. Further, the bioavailability at 24 h in data set [16] stood at 2.6%. Further, in data set [17], the highest level (Cmax at 24 h) was 14 ng/mL. In addition, the AUC at 24 h in [18] came out at 16 ng·h/mL. The same compound had a half-life at 24 h in [15] of 2.3 h. The clearance at 24 h in data set [19] was found to be 81 mL/min/kg. In addition, the figures for the metabolised at 0.5 h in [1] (liver microsomes) and in [2] (liver microsomes) were 55.1% and 62.5%, respectively.

With `CC(C)N1CCC(c2nnc(-c3nn(C(C)C)c4ccccc34)o2)CC1`, the F in [20] is recorded as 9%. Moreover, the AUC in [14] was found to be 133 ng·h/mL. The compound also yielded a Vdss in data set [13] of 10 L/kg. The Cmax (as a rule, the maximum level reached in the sampled fluid or tissue) at 24 h in data set [17] was 91 ng/mL. The compound further gave a half-life at 24 h in [15] of 1.9 h. For the same compound, the Kp (as a rule, the ratio of the level in a tissue or fluid to that in plasma or blood) at 1 h in [21] came to 3.6. The metabolised at 0.5 h amounted to 35.7% in data set [1] (liver microsomes) and 15.3% in [2] (liver microsomes).

`CC(C)n1c(=O)c(C(=O)NCCCN2CCCCC2)c(O)c2ccsc21` [PRX-03140] had a Vdss in data set [13] of 7.6 L/kg. The bioavailability at 24 h in data set [16] is 2%. In data set [17], this compound showed a Cmax at 24 h of 17 ng/mL. The same compound showed an AUC at 24 h in data set [18] of 22 ng·h/mL. The half-life at 24 h in data set [15] was 1.5 h. The same compound came in with a clearance at 24 h in data set [19] of 62 mL/min/kg. This compound showed a Kp at 1 h in data set [21] of 1.6.

The values above are taken from ChEMBL document CHEMBL5223084, “Discovery and Preclinical Characterization of Usmarapride (SUVN-D4010): A Potent, Selective 5-HT4 Receptor Partial Agonist for the Treatment of Cognitive Deficits Associated with Alzheimer's Disease” (J Med Chem, 2021).
